Reference: patent publication US11354990B2, “Treatment of kidney diseases associated with elevated AVP” (United States Government As Represented By The Department …, priority 2017, dated 2022)
Entries after “also recorded” stand apart in the source; their conditions may differ. Values belong to the compound of their own block, whether it stands above or below them.

Legend:
[1] = test system: rodent models of ADPKD; settings: cited from earlier work; for cystogenesis: rodent models of ADPKD, by reducing cAMP production in the kidney
[2] = test system: B6D2 mice; experiment: Ticagrelor in diet (or clopidogrel in drinking water) for 14 days: urinary AVP, urine output and urine osmolality in mice; assay type: in vivo; settings: for effects shown in FIGS. 2-5 (urine output, urine osmolality, urinary AVP): comparison with other P2Y12 receptor antagonists
Description: The study evaluated the effect of increasing doses of ticagrelor from 0.05% to 0.25% (incremental doses of 0.05, 0.10, 0.15, 0.20 and 0.25%) administered to mice for 2 weeks and compared them with that obtained by administering increasing doses of clopidogrel bisulfate (20, 40 or 80 mg/kg bw/day). For this study adult B6D2 mice were used. Different doses of ticagrelor were administered embedded in diet. Clopidogrel bisulfate (Plavix® tablets) were powdered and dissolved in drinking water for administration. The concentration of clopidogrel in the water was adjusted on daily basis based on the water consumption by mice on the previous day.
Rodent diets containing ticagrelor at different concentrations were prepared as follows. 15 grams of ticagrelor was shipped to MP Biomedicals (Solon, Ohio, USA) for custom preparation of 10 kg of rodent chow in pellet form containing 0.15% ticagrelor. The custom-made diet was received and was stored at +4° C. Later in the study, for the preparation of diets containing 0.20% or 0.25%, the above custom-prepared diet (containing 0.15% ticagrelor) was used as a base and the required amount of ticagrelor was added. Diets containing 0.05 and 0.10% ticagrelor were prepared de novo.
Clopidogrel bisulfate was administered orally by mixing finely powdered Plavix® tablets (Bristol-Myers Squibb, New York, N.Y.) in drinking water. The concentration of the drug in the drinking water was adjusted daily based on the water consumption of the animals on the previous day. Three different doses (20, 40 and 80 mg/kg bw/day) were administered. Since it is not possible to work with more than 15 to 20 mice in metabolic cages at any given time, the experimental animals were handled in two batches in a staggered fashion. Urine samples were collected on day 0 (prior to the experimental period), on days 6/7 (end of the first week) and days 13/14 (end of the second week). Terminal blood samples were collected from the posterior vena cava at the time of euthanasia. Kidney tissues were collected and cortex and medulla were separated by sharp dissection and flash frozen for analysis. Within a few minutes after collection, blood samples were centrifuged at +4° C. and plasma was separated and frozen. Urinary AVP levels were assayed by ELISA.
(§1) Different doses of ticagrelor (0.05 to 0.25%) were administered to mice embedded in standard rodent chow (w/w) for 14 days. Twenty-four hour urine samples were collected from the mice by placing them in individual plastic metabolic cages (1 mouse/cage) for two consecutive days, with free access to food and water. Urine samples in the metabolic cages were collected under a layer of light mineral oil. The volumes of urine samples collected were recorded. Urine samples were centrifuged to remove particulate matter. Clear supernatants thus obtained were used for analysis. Blood samples were collected at the time of euthanasia on day 14, as per the protocol recommended by the AstraZeneca for samples destined for the determination of plasma ticagrelor. Briefly, under isoflourane anesthesia, blood from the posterior vena cava was collected and transferred to EDTA K-coated microtubes (Microvette®, Sarstedt, Nümbrecht, Germany). Plasma was separated by centrifugation within 30 min after collection and frozen at −80° C. The frozen samples were shipped in dry ice by FedEx to AstraZeneca (Mölndal, Sweden). At AstraZeneca R&D, the plasma concentration of ticagrelor was determined by liquid chromatography tandem mass spectrometry (LC-MS/MS). FIGS. 1-5 show the data obtained.

[3] = test system: cAMP production in primary cultures of rat IMCD cells; experiment: dDAVP-induced cAMP production in primary cultures of rat IMCD cells (EIA); assay type: cell-based
Description: FIG. 7 is a graph showing the effect of ticagrelor on dDAVP-induced cAMP production in primary cultures of rat IMCD cells: Cells were incubated for 48 h with ticagrelor (5 μM). During the second 24 hours, cells were challenged with dDAVP (20 nM).
dDAVP acting through the vasopressin V2 receptor in IMCD cells stimulates the production of cAMP (FIG. 7). In the collecting ducts in vivo, in the short-term AVP increases cellular cAMP levels to cause translocation of AQP2 protein from the subapical vesicles to apical plasma membrane, and thus increase the water permeability of the apical plasma membrane, the rate limiting barrier for transepithelial water transport. In the long-term, increased cellular cAMP levels induce transcriptional activation of AQP2 and other genes. […] Primary cultures of rat IMCD cells were prepared and incubated with desmopressin with/without ticagrelor (5 μM) as described above. For cAMP assay, the medium was gently aspirated, 200 μl of 0.1 M HCl was added to each insert and incubated for 20 min at room temperature. Then cells were scrapped off the semi-permeable support and lysed by pipetting up and down. The cell lysate was centrifuged at 1,000×g for 10 min. cAMP concentration in the supernatant was determined by an EIA kit (Cayman Chemical Co.) and normalized to the protein content of the wells (Pierce™ BCA Protein Assay Kit, Rockford, Ill.).

[4] = patients; long-term administration; cited from earlier work
[5] = biological target: CYP3A4 system (Homo sapiens, UniProt P08684); settings: cited from earlier work
[6] = biological target: vasopressin V2 receptor (Homo sapiens, UniProt P30518); settings: chronic blockade of vasopressin V2 receptor; cited from earlier work
[7] = test system: DBA/2FG-pcy mouse model of ADPKD; settings: tolvaptan concentrations between 0.01% and 0.30% in food; cited from earlier work
[8] = in vivo; cited from earlier work
[9] = test system: ADPKD; settings: clinical trials; cited from earlier work
[10] = test system: lithium-induced NDI in rodent models; settings: cited from earlier work
[11] = Plasma concentration of ticagrelor by LC-MS/MS in mice fed ticagrelor; assay type: in vivo; settings: corresponding to a dose of 0.15% or above in food, day 14
Description: as §1

[12] = test system: AQP2; experiment: dDAVP-induced AQP2 mRNA expression in primary cultures of rat IMCD cells (real-time PCR); assay type: cell-based
Description: (§2) FIGS. 6A-C show the effect of ticagrelor on the mRNA expression of AQP2 (A) and AQP3 (B) relative to the expression R3-actin and the effect of ticagrelor on the mRNA expression of AQP2 relative to GAPDH (C) in primary cultures of rat inner medullary collecting duct (IMCD) cells. Cells were incubated with different concentrations of ticagrelor (0.5 to 25 μM) for 48 hours. During the second 24 hours, the cells were challenged with dDAVP (20 nM). The numbers in parentheses above the bars indicate the number of culture wells.
(§3) Primary cultures of rat inner medullary collecting duct (IMCD) cells were prepared. When the cells became 70-80% confluent, the medium was changed to relative starvation mode (low FBS), and used for testing the effect of Desmopressin (dDAVP), a V2 receptor-selective analogue of AVP, and/or ticagrelor. Cells were incubated for 48 h with ticagrelor ranging from 1.5 to 25 μM. During the second 24 hours, cells were challenged with dDAVP (20 nM). At the end of the incubation period, cells were harvested, RNA extracted, reverse transcribed and subjected to real-time PCR to determine the expression of AQP2 and AQP3 genes relative to the expression of the housekeeping genes (β-actin or GAPDH).
(§4) Results (FIGS. 6A-C) are presented as percent of the values in control incubations without any addition of agents. FIGS. 6A-C show the effect of different concentrations of ticagrelor on dDAVP (20 nM)-induced AQP2 or AQP3 expression relative to p-actin expression in primary cultures of rat IMCD cells. Two independent assays on primary cultures of IMCD cells derived from two different rats at different times were used, and the data obtained were pooled for analysis and presentation in the graphs. Data were analyzed by analysis of variance (ANOVA) followed by Tukey-Kramer Multiple Comparison Test. The numbers in parentheses above the bars indicate the number of culture wells.

[13] = test system: AQP3; experiment: dDAVP-induced AQP3 mRNA expression in primary cultures of rat IMCD cells (real-time PCR); assay type: cell-based
Description: as §2, §3, §4

[14] = test system: medullary collecting duct cells; experiment: Proliferation of medullary collecting duct cells; assay type: cell-based; settings: increasing concentrations of ticagrelor
[15] = biological target: T1, P2Y12 receptor (Rattus norvegicus, UniProt Q9EPX4); experiment: Blockade of P2Y12 receptor in primary cultures of rat hypothalamic cells: expression of AVP; assay type: cell-based
T1 construct: endogenous in cells; host or cells: primary cultures of rat hypothalamic cells

[16] = ticagrelor 0.05 to 0.25% in food, 14 days
[17] = different concentrations of ticagrelor 48 h, dDAVP 20 nM during second 24 h
[18] = different concentrations of ticagrelor 48 h, dDAVP 20 nM during second 24 h, listed as Ticagrelor
[19] = ticagrelor 2 μM, listed as Ticagrelor
[20] = ticagrelor 10 μM, listed as Ticagrelor

Chain of CYP3A4 system (P08684 whole entry): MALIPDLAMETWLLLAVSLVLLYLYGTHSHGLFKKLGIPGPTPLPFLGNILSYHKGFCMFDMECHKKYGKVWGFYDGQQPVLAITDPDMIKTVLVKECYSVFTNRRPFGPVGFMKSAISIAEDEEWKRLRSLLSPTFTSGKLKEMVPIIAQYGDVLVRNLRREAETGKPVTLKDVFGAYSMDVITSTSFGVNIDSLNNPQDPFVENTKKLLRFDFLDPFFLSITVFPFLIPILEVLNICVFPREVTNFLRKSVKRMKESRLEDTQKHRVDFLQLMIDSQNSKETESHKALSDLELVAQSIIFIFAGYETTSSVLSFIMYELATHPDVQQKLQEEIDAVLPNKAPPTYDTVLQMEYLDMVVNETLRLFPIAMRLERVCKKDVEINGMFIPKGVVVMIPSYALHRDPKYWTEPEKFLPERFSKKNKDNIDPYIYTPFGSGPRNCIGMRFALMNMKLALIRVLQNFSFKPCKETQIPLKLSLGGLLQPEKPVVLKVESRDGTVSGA
Chain of vasopressin V2 receptor (P30518 whole entry, species assumed): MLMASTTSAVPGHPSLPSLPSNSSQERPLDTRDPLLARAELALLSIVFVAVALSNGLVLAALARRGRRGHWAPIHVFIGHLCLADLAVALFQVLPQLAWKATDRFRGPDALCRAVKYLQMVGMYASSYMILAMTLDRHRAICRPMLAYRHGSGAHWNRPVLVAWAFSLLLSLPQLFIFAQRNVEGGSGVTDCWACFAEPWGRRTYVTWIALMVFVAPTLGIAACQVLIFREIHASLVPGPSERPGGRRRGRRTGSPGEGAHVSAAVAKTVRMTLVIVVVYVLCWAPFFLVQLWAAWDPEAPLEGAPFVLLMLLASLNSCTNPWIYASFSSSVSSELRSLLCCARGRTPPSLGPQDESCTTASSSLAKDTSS
T1 sequence (Q9EPX4 whole entry): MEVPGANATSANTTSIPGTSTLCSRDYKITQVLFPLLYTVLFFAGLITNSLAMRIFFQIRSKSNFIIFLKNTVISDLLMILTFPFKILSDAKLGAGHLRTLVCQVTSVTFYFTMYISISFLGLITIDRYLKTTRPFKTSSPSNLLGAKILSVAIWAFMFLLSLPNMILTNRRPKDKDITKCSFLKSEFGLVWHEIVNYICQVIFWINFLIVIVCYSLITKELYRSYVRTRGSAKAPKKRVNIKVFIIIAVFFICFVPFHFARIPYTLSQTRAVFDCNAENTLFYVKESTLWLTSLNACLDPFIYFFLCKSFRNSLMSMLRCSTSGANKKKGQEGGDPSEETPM

SMILES: Cc1ccccc1C(=O)Nc1ccc(C(=O)N2CCCC(N(C)C)c3ccccc32)cc1 (stereo not drawn) [OPC-31260]
cystogenesis [1]: consistently inhibited

SMILES: CC(=O)Oc1cc2c(s1)CCN(C(C(=O)C1CC1)c1ccccc1F)C2 (stereo not drawn) [prasugrel]
effects shown in FIGS. 2-5 (urine output, urine osmolality, urinary AVP) [2]: could not be seen

SMILES: NC(=O)CC[C@@H]1NC(=O)[C@H](Cc2ccccc2)NC(=O)[C@H](Cc2ccc(O)cc2)NC(=O)CCSSC[C@@H](C(=O)N2CCC[C@H]2C(=O)N[C@H](CCCN=C(N)N)C(=O)NCC(N)=O)NC(=O)[C@H](CC(N)=O)NC1=O [desmopressin, Desmopressin]
increase in cellular cAMP levels ([3]; 20 nM desmopressin, IMCD cells): 3.6 fold

SMILES: Cc1ccccc1C(=O)Nc1ccc(C(=O)N2CCCC(O)c3cc(Cl)ccc32)c(C)c1 (stereo not drawn) [tolvaptan]
cyst growth ([1]; experimental models of ADPKD): slow down the cyst growth
cystogenesis [1]: consistently inhibited
side effects [4]: severe polyuria (loss of water in the urine), nocturia (frequent urination in the night), thirst and dry mouth; also recorded: constipation, loss of appetite, dry skin, nausea, vomiting, and potential for acute liver failure
metabolism [5]: metabolized by the CYP3A4 system
endogenous production of AVP [6]: increased
optimum concentration in food [7]: 0.10%
pharmacokinetics [8]: dose-related pharmacokinetics, it is unpredictable in ADPKD patients
efficacy for the treatment of ADPKD [9]: established

SMILES: COC(=O)[C@H](c1ccccc1Cl)N1CCc2sccc2C1 [clopidogrel, clopidogrel bisulfate]
effects shown in FIGS. 2-5 (urine output, urine osmolality, urinary AVP) [2]: could not be seen
effect on the production of AVP by the hypothalamus ([2]; mouse, in vivo): did not have such an effect
lithium-induced NDI [10]: significantly ameliorate

SMILES: CCCSc1nc(N[C@@H]2C[C@H]2c2ccc(F)c(F)c2)c2nnn([C@@H]3C[C@H](OCCO)[C@@H](O)[C@H]3O)c2n1 [ticagrelor]
urinary AVP (vasopressin) ([2]; 0.25% ticagrelor in the food): marked decrease
urine concentrating ability ([2]; 0.25% ticagrelor in the food): significant reduction
urinary AVP ([2]; lower doses of ticagrelor in the food): minimal effect
urine osmolality [2, 16]: decrease
urine output [2, 16]: increase
urinary AVP excretion ([2]; ticagrelor 0.05 to 0.25% in food, 14 days, 24-hour urine, normal mice): dose-related decrease; also recorded: dose-dependent decrease
urinary concentrating ability ([2]; ticagrelor 0.05 to 0.25% in food, 14 days, assessed by urine output and osmolality): dose-related decrease; also recorded: dose-dependent decrease
plasma ticagrelor level above which the relation to urine osmolality and AVP was more pronounced [11]: above 1.30 μM
effect on dDAVP-induced AQP2 mRNA expression [12, 17]: augmented
effect on dDAVP-induced AQP2 mRNA expression [12, 18]: tendency for concentration-dependent enhancement
effect on dDAVP-induced AQP2 mRNA expression ([12]; ticagrelor 2 μM): augmentative effect was seen; also recorded: tendency to augment
effect on dDAVP-induced AQP2 mRNA expression [12, 19]: statistically significant
effect on dDAVP-induced increase in AQP2 expression ([12]; ticagrelor 5 μM): did not suppress
effect on dDAVP-induced AQP2 mRNA expression ([12]; ticagrelor 10 μM): more prominent
effect on dDAVP-induced AQP2 mRNA expression [12, 20]: statistically significant
effect on AQP2 gene expression ([12]; ticagrelor 25 μM): suppressing the gene expression to a very low level; also recorded: almost completely suppressed
effect on dDAVP-induced AQP3 mRNA expression [13, 17]: augmented
effect on dDAVP-induced AQP3 mRNA expression [13, 18]: tendency for concentration-dependent enhancement
effect on dDAVP-induced AQP3 mRNA expression ([13]; ticagrelor 2 μM): augmentative effect was seen; also recorded: tendency to augment
effect on dDAVP-induced AQP3 mRNA expression [13, 19]: statistically significant
effect on dDAVP-induced increase in AQP3 expression ([13]; ticagrelor 5 μM): did not suppress
effect on dDAVP-induced AQP3 mRNA expression ([13]; ticagrelor 10 μM): more prominent
effect on dDAVP-induced AQP3 mRNA expression [13, 20]: statistically significant
effect on AQP3 gene expression ([13]; ticagrelor 25 μM): suppressing the gene expression to a very low level; also recorded: almost completely suppressed
effect on desmopressin-induced cAMP levels ([3]; 5 μM ticagrelor, 48 h, dDAVP 20 nM): did not have any significant effect
proliferation of medullary collecting duct cells [14]: decrease
side effects [4]: uncontrolled bleeding from wounds or internal ulcers

expression of AVP [15]: increased
SMILES: Nc1c(S(=O)(=O)O)cc(Nc2ccc(Nc3ccccc3)c(S(=O)(=O)O)c2)c2c1C(=O)c1ccccc1C2=O [PSB-0739]
